According to patent US12411143B2, “CD146 and uses thereof as a biomarker and as a therapeutic target in the diagnosis and treatment of fibrosis” (ASSISTANCE PUBLIQUE HÔPITAUX DE MARSEILLE, priority 2018, dated 2025):

Assays:
ECFC [1] = test: Soluble CD146 secretion in ECFC (ELISA); assay type: cell-based, human; conditions: for secretion of soluble CD146 in response to stimuli: 24 h, 20 ng/ml TNF, 20 ng/ml VEGF, 5 ng/ml TGFb, 50 ng/ml netrin, 50 ng/ml Wnt5a; for sCD146 secretion with proteinase inhibitors: IF 50 μM, TIMPs 1 μg/ml
Procedure: A: Secretion of soluble CD146 (CD146s) was determined in ECFC in response to 24 h of treatment with 20 ng/ml TNF, 20 ng/ml VEGF, 5 ng/ml TGFb, 50 ng/ml netrin, 50 ng/ml Wnt5a and 50 ng/ml Wnt3a.
B: The effect of the pan-inhibitor GM6001 was tested on CD146s secretion in ECFC cells by ELISA. Experiments were performed in control conditions and after treatment with 20 ng/ml TNF for 24 h. […] A dose-dependence of GM6001 effect was performed between 1 and 50 μM. Results are the mean values+/−SEM of 5 experiments.
C: The effect of furin convertase inhibitor (IF) was tested at 50 μMon CD146s secretion in control condition and after treatment with TNF 20 ng/ml for 24 h. Results are the mean values+/−SEM of 3 experiments.
D: Effect of TIMP-1, -2 and -3 (1 μg/ml) was tested on CD146s secretion in control condition and after treatment with 20 ng/ml TNF. Results are the mean values+/−SEM of 3 experiments. *: P<0.05, **: P<0.01, ***: P<0.001, experimental vs Control
A: ECFC were transfected with siRNA targeting the short (shCD146) or the long (IgCD146) isoforms of CD146 and with a control siRNA (C). Soluble CD146 (sCD146) secretion was determined. Results are the mean values+/−SEM of 4 different experiments.
B: ECFC were transfected with siRNA targeting MT1-MMP, MMP2, ADAM10 or Tace and with a control siRNA (C). Soluble CD146 (sCD146) secretion was determined. In one condition, cells were treated with GM6001 10 μM. Results are the mean values+/−SEM of 5 different experiments.
A: ECFC were transfected with siRNA targeting the short (shCD146) or the long (IgCD146) isoforms of CD146 and with a control siRNA (C) and soluble CD146 (sCD146) secretion was determined in basal condition and in cells treated for 24 h with TNF 20 ng/ml. Results are the mean values +/−SEM of 5 different experiments.
B: ECFC treated for 24 h with 20 ng/ml TNF were transfected with siRNA targeting Tace, ADAM10, MT1-MMP and with a control siRNA (C) and soluble CD146 (sCD146) secretion was determined. Results are the mean values +/−SEM of 3 different experiments.
Endothelial Colony Forming Cells (ECFC) were cultured in endothelial EGM-2 MV medium as previously described (Delorme B et al., 2005).
SiRNA designed to silence the different isoforms of sCD146 were generated. A control siRNA was also used in each experiment. siRNAs were introduced in endothelial cells using the Silence magmagnetofection kit as described by the manufacturer (OZ Biosciences).
Shed sCD146 was assayed using the commercial ELISA assay (CY-QUANT sCD146, Biocytex, Marseille). Plates were coated with specific mouse monoclonal anti-human CD146 F(ab′)2 fragments. 10 μL of sera was added to each well and incubated for 30 minutes at room temperature. After incubation, the plates were washed five times, followed by incubation with a specific HRP-coupled monoclonal antibody (7A4-HRP, 1 mg/ml, Biocytex, Marseille, France) at a 1:1 000 dilution in a specific diluent for 30 minutes at room temperature and then washed five times. 200 μL of tetramethylbenzidine (TMB) substrate was incubated for approximately 20 minutes at room temperature. The colorimetric reaction was then stopped by the addition of 100 μL of an acid solution. The intensity of the signal was directly related to the concentration of sCD146 initially contained in the sample. For detecting the two spliced isoforms of sCD146 (I5-13-sCD146 and I10-sCD146), the same immunoassay was used (Biocytex). The protocol was modified only for the second antibody (detection antibody) that was replaced by the anti-I5-13-sCD146 or anti-I10-sCD146 antibodies coupled to HRP.

ECFC [2] = test: Permeability of ECFC monolayer to dextran-FITC; assay type: cell-based, human; conditions: siRNA or plasmid transfection
Procedure: D: ECFC were transfected with siRNA targeting ADAM10 or Tace and with a control siRNA (C). The permeability of the ECFC monolayer grown on semi-permeable filters was determined using dextran-FITC. Results are the mean values+/−SEM of 3 experiments.
E: ECFC were transfected with plasmid vectors encoding ADAM10 (p-ADAM10) or Tace (p-Tace) and with a control plasmid vector (C). The permeability of the ECFC monolayer grown on semi-permeable filters was determined using dextran-FITC. Results are the mean values+/−SEM of 3 experiments. *: P<0.05, **: P<0.01, ***: P<0.001, experimental vs Control.
ECFC were seeded at 60,000 cells per well on membrane inserts (porosity 1 μm) of a 24-multiwell double chamber system (Multiwell Insert System, BD Biosciences, Le Pont de Claix, France) after siRNA transfection or not. Confluent endothelial monolayers were then incubated for 24 h in EGM-2 medium in the presence or absence of the different forms of sCD146. The FITC-dextran (sigma) was added at the apical surface of the cells and was allowed to migrate for 1.5 h at 37° C. Basolateral FITC-dextran was then measured using a Cytofluor Series 4000 Fluorescence (PerSeptiveBiosystems, Framingham, MA).

ECFC [3] = test: mRNA expression of sCD146 isoforms in ECFC (qPCR); assay type: cell-based, human; conditions: ECFC; 24 h treatment (WNT5a 15 min, WNT3a 1 h)
Procedure: C: The mRNA expression of I10-sCD146 and I5-13-sCD146 isoforms was analyzed by qPCR in ECFC after treatment of the cells for 24 h with the recombinant shed soluble CD146 50 ng/ml, VEGF 20 ng/ml, TNF 20 ng/ml, TGF beta 5 ng/ml, and netrin 50 ng/ml. Cells were also treated for 15 min with WNT5a 200 ng/ml and 1 h with WNT3a 50 ng/ml. Results are the mean values +/−SEM of 3 experiments. *: P<0.05, experimental vs Control.
Total cellular RNA was isolated from cells, reverse transcribed into cDNA and the resulting cDNA was subjected to qPCR.

[4] = system: mouse ischemic hind limb model; test: Mouse hind limb ischemia model; assay type: in vivo
Procedure: A: Ischemic mice were treated with PBS or 2 μg of rh-sCD146/rh-I10-sCD146/rh-I5-13-sCD146 or VEGF. Blood perfusion rate was monitored by laser-Doppler. Results are mean values of 6 different animals in each group and expressed as % of the control leg. *, **, ***: P<0.05, P<0.01, P<0.001, I10-sCD146 vs. PBS; $$, $$$: P<0.01, P<0.001, I5-13-sCD146 vs. PBS; ##, ###: P<0.01, P<0.001, shed sCD146 vs. PBS; £: P<0.05, VEGF vs. PBS.
B: Blood vessels examination in hind limb muscle sections from control (PBS) and shed rh-sCD146/rh-I10-sCD146/rh-I5-13-sCD146 treated animals 28 days after surgery. Vessels are labelled with isolectin B4.**, ***: P<0.01, P<0.001, experimental vs control. $: P<0.05, I10-sCD146 vs I5-13-sCD146.
C: Angiographic pictures of control (PBS) and shed sCD146/I10-sCD146/I5-13-sCD146 treated animals at D28. Pictures are representative of the 6 animals in each group. Average of the density of the vessels was expressed as right versus left leg in the different parts of the legs (calf, thigh) and in the whole leg. *, **: P<0.01, P<0.001 experimental vs PBS in calf; $: P<0.05, experimental vs PBS in thigh; #, ##: P<0.05, P<0.01, experimental vs PBS in whole leg.
In sections of muscles from ischemic mice, vascularisation was visualized with isolectin B4 (Lifetechnologies) ( 1/100). Tissue sections were examined by fluorescence microscopy (Leica sp5, Leica, Nanterre, France).
Female mice were subjected to unilateral hind limb ischemia by complete resection of the entire left femoral artery. After surgery, animals were split in four treatment groups: one control group injected in ischemic adductor muscles twice a week with PBS for 28 days; three experimental groups treated as the control groups with the three different recombinant human soluble CD146 (rh-sCD146, rh-I5-13-sCD146, rh-I10-sCD146) 2 μg.
The ratio of the ischemic versus normal hind limb blood flow was measured using a laser doppler blood flow analyzer. At different time points post-surgery (days 1, 3, 7, 14, 21 and 28), animals were subjected to 3 consecutive laser scannings over the regions of interest (leg and feet). Blood flow was expressed as the ischemic versus normal hind limb ratio.
The animals were deeply anesthetised with mix of Ketamine Xylasine (100 mg/kg and 10 mg/kg respectively) and perfused intracardially with 2 ml of lipiodole. CT 3D images were obtained with a microPET/microCT rodent model scanner (nanoPET/CTO, Mediso) with features below: 70 kVp energy, exposure time of 300 ms and 720 projections and were quantified.

[5] = control condition and TNF 20 ng/ml 24 h

In the case of “IgCD146 siRNA: siRNA targeting the long isoform of CD146; sens 5′CCCGUCUCGUAAGACCGAACUUGUA (antisense UACAAGUUCGGUCUUACGAGACGGG; chemistry not given here)”, the “reduction of sCD146 secretion by siRNA” value (ECFC [1]; 24 h TNF 20 ng/ml) is reported as “about 60%”, the “effect of siRNA on sCD146 secretion” value (ECFC [1]; control condition) is reported as “reduced sCD146 secretion” and the “reduction of sCD146 secretion by siRNA” value (ECFC [1]; control condition) is reported as “around 75%”. For the same molecule, the “permeability of ECFC monolayer to dextran” value (ECFC [2]) was “significantly increased endothelial permeability”.

VEGF [reference compound] was tested, and the “I5-13-sCD146 mRNA level” value (ECFC [3]) was “not modified”, the “I10-sCD146 mRNA level” value (ECFC [3]) was “down-regulated” and the “secretion of soluble CD146 in response to stimuli” value (“secretion of soluble CD146” below) (ECFC [1]) was “increased”. The “vascularisation of muscle (isolectin B4 labelling)” value ([4]; 28 days after surgery, compared to PBS) was “vascularisation was increased” and the “vessel density in calf, thigh and whole leg (angiography quantification)” value ([4]; D28, compared to PBS) was “significantly increased”.

In the case of `CNC(=O)[C@H](Cc1c[nH]c2ccccc12)NC(=O)[C@@H](CC(=O)NO)CC(C)C` [GM6001], the “GM6001-dependent part of total sCD146 secretion” value (ECFC [1]; control condition and TNF 20 ng/ml 24 h, GM6001 1-50 μM) is reported as “around 75%”.

In the case of “TIMP-1: TIMP used to inhibit sCD146 secretion”, the “sCD146 secretion with proteinase inhibitors” value (ECFC [1]; [5]) is reported as “able to reduce sCD146 secretion in both conditions”.

With “TGFb: stimulus of endothelial cells, 5 ng/ml [reference compound]” the “I5-13-sCD146 mRNA level” value (ECFC [3]) was “not modified” and the “secretion of soluble CD146” value (ECFC [1]) was “increased”.

In the case of “shCD146 siRNA: siRNA targeting the short isoform of CD146; sens 5′CAGGAGAUGGAGAGAAAUACAUCGA (antisense UCGAUGUAUUUCUCUCCAUCUCCUG; chemistry not given here)”, the “reduction of sCD146 secretion by siRNA” value (ECFC [1]; 24 h TNF 20 ng/ml) is reported as ~25% and the “effect of siRNA on sCD146 secretion” value (ECFC [1]; control condition) is reported as “no effect”.

B1: Wnt5a: stimulus of endothelial cells (protein, UniProt P41221 62-380, looked up)
Protein Wnt-5a: IIGAQPLCSQLAGLSQGQKKLCHLYQDHMQYIGEGAKTGIKECQYQFRHRRWNCSTVDNTSVFGRVMQIGSRETAFTYAVSAAGVVNAMSRACREGELSTCGCSRAARPKDLPRDWLWGGCGDNIDYGYRFAKEFVDARERERIHAKGSYESARILMNLHNNEAGRRTVYNLADVACKCHGVSGSCSLKTCWLQLADFRKVGDALKEKYDSAAAMRLNSRGKLVQVNSRFNSPTTQDLVYIDPSPDYCVRNESTGSLGTQGRLCNKTSEGMDGCELMCCGRGYDQFKTVQTERCHCKFHWCCYVKCKKCTEIVDQFVCK
In the case of B1, the “I5-13-sCD146 mRNA level” value (ECFC [3]) is reported as “up-regulated” and the “secretion of soluble CD146” value (ECFC [1]) is reported as “increased”.

B2: TIMP-3: TIMP used to inhibit sCD146 secretion (protein, UniProt P35625 24-211, looked up)
Metalloproteinase inhibitor 3: CTCSPSHPQDAFCNSDIVIRAKVVGKKLVKEGPFGTLVYTIKQMKMYRGFTKMPHVQYIHTEASESLCGLKLEVNKYQYLLTGRVYDGKMYTGLCNFVERWDQLTLSQRKGLNYRYHLGCNCKIKSCYYLPCFVTSKNECLWTDMLSNFGYPGYQSKHYACIRQKGGYCSWYRGWAPPDKSIINATDP
With B2 the “sCD146 secretion with proteinase inhibitors” value (ECFC [1]; [5]) was “able to reduce sCD146 secretion only when the cells were treated with TNF”.

B3: Wnt3a: stimulus of endothelial cells (protein, UniProt P56704 19-352, looked up)
Protein Wnt-3a: SYPIWWSLAVGPQYSSLGSQPILCASIPGLVPKQLRFCRNYVEIMPSVAEGIKIGIQECQHQFRGRRWNCTTVHDSLAIFGPVLDKATRESAFVHAIASAGVAFAVTRSCAEGTAAICGCSSRHQGSPGKGWKWGGCSEDIEFGGMVSREFADARENRPDARSAMNRHNNEAGRQAIASHMHLKCKCHGLSGSCEVKTCWWSQPDFRAIGDFLKDKYDSASEMVVEKHRESRGWVETLRPRYTYFKVPTERDLVYYEASPNFCEPNPETGSFGTRDRTCNVSSHGIDGCDLLCCGRGHNARAERRREKCRCVFHWCCYVSCQECTRVYDVHTCK
With B3 the “I5-13-sCD146 mRNA level” value (ECFC [3]) was “not modified” and the “I10-sCD146 mRNA level” value (ECFC [3]) was “down-regulated”.
